The record followed here is ChEMBL document CHEMBL2375306, “Antimicrobial peptides containing unnatural amino acid exhibit potent bactericidal activity against ESKAPE pathogens” (Bioorg Med Chem, 2013).

Converted amounts (≈) assume the structure as drawn. Square brackets hold non-standard residues; d marks the D form. Peptide text beside a SMILES is read from it. ξ: configuration not given here. Pro(3ξ,4ξ-(CH2)4) = O=C(O)[C@H]1NCC2CCCCC21; Tic = O=C(O)[C@@H]1Cc2ccccc2CN1; Dab = NCC[C@H](N)C(=O)O

One series relates to Pseudomonas aeruginosa. In words: Antibacterial activity against Pseudomonas aeruginosa PAO1 after 24 hrs by broth microdilution method. It is filed as functional. To be noted: PAO1, 24 h. (In broth dilution the organism is exposed to a series of concentrations in liquid medium.)
Series [1] concerns NHDF. In words: Cytotoxicity against NHDF at 50 ug/ml after 6 hrs by LDH assay. To be noted: human. It is filed as cell-based.
The test system of the next series is Klebsiella aerogenes. Kind of series: Antibacterial activity against Enterobacter aerogenes after 24 hrs by broth microdilution method. It is filed as functional.
Series [2] relates to NHDF. In words: Cytotoxicity against NHDF at >50 ug/ml after 6 hrs by LDH assay. The format is cell-based. To be noted: human.
The next series deals with Enterococcus faecium. In words: Antibacterial activity against Enterococcus faecium MMC4 after 24 hrs by broth microdilution method. It is filed as functional. To be noted: MMC4, 24 h.
Series [3] concerns Staphylococcus aureus. Kind of series: Antibacterial activity against community-associated methicillin-resistant Staphylococcus aureus USA300 after 24 hrs by broth microdilution method. The format is functional. To be noted: USA300, 24 h.
In series [4] the test system is Staphylococcus aureus. In words: Antibacterial activity against methicillin-sensitive Staphylococcus aureus UAMS-1 after 24 hrs by broth microdilution method. The format is functional. To be noted: UAMS-1, 24 h.
The test system of a further series is Klebsiella pneumoniae. Kind of series: Antibacterial activity against Klebsiella pneumoniae BAMS clinical isolate 07-18 after 24 hrs by broth microdilution method. To be noted: BAMS clinical isolate 07-18, 24 h. The format is functional.
The subject of another series is Acinetobacter baumannii. In words: Antibacterial activity against Acinetobacter baumannii WRAIR clinical isolate 13 after 24 hrs by broth microdilution method. The format is functional. To be noted: WRAIR clinical isolate 13, 24 h.
Series [5] has as its system NHDF. Kind of series: Cytotoxicity against NHDF at >50 ug/ml after 6 hrs by MTT assay. To be noted: human. The format is cell-based. (Tetrazolium assays rely on reduction of a dye to a coloured formazan, in cell work by metabolically active cells.)
Series [6] has as its system NHDF. In words: Cytotoxicity against NHDF at 50 ug/ml after 6 hrs by MTT assay. The format is cell-based. To be noted: human.

What is called MBC is the lowest tested concentration that kills the bacteria rather than only halting them. Usually MIC stands for the lowest concentration found to suppress growth. Read a low MIC as greater potency. Turning to `CC(=O)NCC(=O)N[C@@H](Cc1ccccc1)C(=O)N1Cc2ccccc2C[C@H]1C(=O)N1CC2CCCCC2[C@H]1C(=O)NCC(=O)N[C@@H](CCN)C(=O)N1Cc2ccccc2C[C@H]1C(=O)N1CC2CCCCC2[C@H]1C(=O)NCC(=O)N[C@@H](Cc1ccccc1)C(=O)N1Cc2ccccc2C[C@H]1C(=O)N1CC2CCCCC2[C@H]1C(=O)NCC(=O)N[C@@H](CCN)C(=O)N1Cc2ccccc2C[C@H]1C(=O)N[C@@H](CCN)C(=O)N[C@@H](CCN)C(=O)N[C@@H](CCN)C(=O)N[C@@H](CCN)C(N)=O` (stereo not given in full) (Ac-GF[Tic][Pro(3ξ,4ξ-(CH2)4)]G[Dab][Tic][Pro(3ξ,4ξ-(CH2)4)]GF[Tic][Pro(3ξ,4ξ-(CH2)4)]G[Dab][Tic][Dab][Dab][Dab][Dab]-NH2), the MBC against Pseudomonas aeruginosa turned out to be 25 µg/mL (≈ 11 µM); against Klebsiella aerogenes it was 25 µg/mL (≈ 11 µM); in the series with Enterococcus faecium, 50 µg/mL (≈ 22 µM); with Staphylococcus aureus [4] it was 50 µg/mL (≈ 22 µM); in the series on Klebsiella pneumoniae, 12.5 µg/mL (≈ 5.5 µM); with Acinetobacter baumannii, 12.5 µg/mL (≈ 5.5 µM). For the same compound, the MIC came out at 12.5 µg/mL (≈ 5.5 µM) in the series on Pseudomonas aeruginosa; 25 µg/mL (≈ 11 µM) against Klebsiella aerogenes; 6.25 µg/mL (≈ 2.75 µM) against Enterococcus faecium; 25 µg/mL (≈ 11 µM) against Staphylococcus aureus [3]; 50 µg/mL (≈ 22 µM) against Staphylococcus aureus [4]; 12.5 µg/mL (≈ 5.5 µM) against Klebsiella pneumoniae. Moreover, the MIC in the series with Acinetobacter baumannii was 6.25 µg/mL (≈ 2.75 µM). The Activity entry in the series on NHDF [1] is recorded as “Non-toxic”; in the series with NHDF [2] it was “Toxic”; with NHDF [5] it was “Toxic”; in the series on NHDF [6], “Non-toxic”.
For the compound `CC(C)C[C@H](NC(=O)[C@@H](N)CCCCN)C(=O)N1Cc2ccccc2C[C@H]1C(=O)N1CC2CCCCC2[C@H]1C(=O)N[C@@H](CCCCN)C(=O)NCC(=O)N1Cc2ccccc2C[C@H]1C(=O)N1CC2CCCCC2[C@H]1C(=O)N[C@@H](Cc1ccccc1)C(=O)NCC(=O)N1Cc2ccccc2C[C@H]1C(=O)N1CC2CCCCC2[C@H]1C(=O)N[C@@H](CCCCN)C(=O)NCC(=O)N1Cc2ccccc2C[C@H]1C(=O)N1CC2CCCCC2[C@H]1C(=O)N[C@@H](Cc1ccccc1)C(=O)NCC(=O)N1Cc2ccccc2C[C@H]1C(=O)N1CC2CCCCC2[C@H]1C(=O)N[C@@H](CCCCN)C(=O)NCC(=O)N1Cc2ccccc2C[C@H]1C(=O)N1CC2CCCCC2[C@H]1C(=O)N[C@@H](CCCCN)C(=O)N[C@@H](CCCCN)C(=O)N[C@@H](CCCCN)C(=O)N[C@@H](CCCCN)C(N)=O` (stereo not given in full) (H-KL[Tic][Pro(3ξ,4ξ-(CH2)4)]KG[Tic][Pro(3ξ,4ξ-(CH2)4)]FG[Tic][Pro(3ξ,4ξ-(CH2)4)]KG[Tic][Pro(3ξ,4ξ-(CH2)4)]FG[Tic][Pro(3ξ,4ξ-(CH2)4)]KG[Tic][Pro(3ξ,4ξ-(CH2)4)]KKKK-NH2), the MBC is 50 µg/mL (≈ 13.9 µM) against Pseudomonas aeruginosa; 50 µg/mL (≈ 13.9 µM) against Klebsiella aerogenes; 25 µg/mL (≈ 6.95 µM) with Enterococcus faecium; 50 µg/mL (≈ 13.9 µM) with Staphylococcus aureus [4]; 50 µg/mL (≈ 13.9 µM) with Klebsiella pneumoniae; 25 µg/mL (≈ 6.95 µM) in the series on Acinetobacter baumannii. For the same compound, the MIC with Pseudomonas aeruginosa was found to be 50 µg/mL (≈ 13.9 µM); in the series on Klebsiella aerogenes, 50 µg/mL (≈ 13.9 µM); against Enterococcus faecium, 6.25 µg/mL (≈ 1.74 µM); against Staphylococcus aureus [4], 12.5 µg/mL (≈ 3.47 µM); with Klebsiella pneumoniae, 50 µg/mL (≈ 13.9 µM); against Acinetobacter baumannii it was 12.5 µg/mL (≈ 3.47 µM). The Activity result is listed as “Non-toxic” in the series on NHDF [1], “Toxic” in the series with NHDF [2], “Toxic” in the series with NHDF [5] and “Non-toxic” with NHDF [6].
As to `CC(=O)NCC(=O)N[C@@H](CC(=O)O)C(=O)N[C@@H](Cc1ccccc1)C(=O)N1Cc2ccccc2C[C@H]1C(=O)N1CC2CCCCC2[C@H]1C(=O)NCC(=O)N[C@@H](CCCCN)C(=O)N1Cc2ccccc2C[C@H]1C(=O)N1CC2CCCCC2[C@H]1C(=O)NCC(=O)N[C@@H](CC(=O)O)C(=O)N[C@@H](Cc1ccccc1)C(=O)N1Cc2ccccc2C[C@H]1C(=O)N1CC2CCCCC2[C@H]1C(=O)NCC(=O)N[C@@H](CCCCN)C(=O)N1Cc2ccccc2C[C@H]1C(=O)N[C@@H](CCCCN)C(=O)N[C@@H](CCCCN)C(=O)N[C@@H](CCCCN)C(=O)N[C@@H](CCCCN)C(N)=O` (stereo not given in full) (Ac-GDF[Tic][Pro(3ξ,4ξ-(CH2)4)]GK[Tic][Pro(3ξ,4ξ-(CH2)4)]GDF[Tic][Pro(3ξ,4ξ-(CH2)4)]GK[Tic]KKKK-NH2), the MBC in the series on Pseudomonas aeruginosa was found to be 50 µg/mL (≈ 18.7 µM); against Klebsiella aerogenes, 100 µg/mL (≈ 37.4 µM); against Enterococcus faecium it was 50 µg/mL (≈ 18.7 µM); in the series on Staphylococcus aureus [4], 100 µg/mL (≈ 37.4 µM); in the series with Klebsiella pneumoniae, 100 µg/mL (≈ 37.4 µM); against Acinetobacter baumannii, 12.5 µg/mL (≈ 4.68 µM). The MIC in the series with Pseudomonas aeruginosa was 50 µg/mL (≈ 18.7 µM); against Klebsiella aerogenes it was 100 µg/mL (≈ 37.4 µM); in the series on Enterococcus faecium, 12.5 µg/mL (≈ 4.68 µM); against Staphylococcus aureus [4], 100 µg/mL (≈ 37.4 µM); against Klebsiella pneumoniae it was 50 µg/mL (≈ 18.7 µM); in the series with Acinetobacter baumannii it was 12.5 µg/mL (≈ 4.68 µM).
